Assay results published in patent publication US20020026053A1, “Novel 3-(substituted) -2- indolinones compounds and use thereof as inhibitors of protein kinase activity” (priority 1997, published 2002).

Tested on: FLK-1 receptor
Assay: FLK-1 Assay (cellular/catalytic ELISA, VEGF-stimulated phosphotyrosine)
Type: cell-based
Parameters: concentration or dose not given beside the values
Outline: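 NIH3T3 C7#3 cells engineered to express Flk-1 were serum-starved overnight (0.1% FBS), then exposed to compound for 2 h at 37 °C (final dilution 1:200, 0.5% DMSO) before VEGF stimulation. Lysates captured on anti-FLK-1 antiserum plates; phosphotyrosine detected by UB40 antibody/POD-ABTS ELISA versus untreated controls.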

SMILES | Flk Kinase % Inhibition (P.110)
O=C1Nc2ccc(S(=O)(=O)N3CCOCC3)cc2C1=Cc1cc(F)cc(F)c1 [10735/F04] | 16.4%
Cc1ccccc1C=C1C(=O)Nc2ccc(S(=O)(=O)Nc3ccc(C(F)(F)F)cc3)cc21 [10735/E02] | −2.0%
Cc1c(Br)cc(Br)c2c1C(=Cc1cccc(F)c1O)C(=O)N2 [10734/H08] | −2.2%
O=C1Nc2ccc(CCCl)cc2C1=Cc1cccc(C(F)(F)F)c1 [10735/G05] | 8.8%
Cc1c(Br)cc(Br)c2c1C(=Cc1cc(Br)cc(Br)c1O)C(=O)N2 [10734/H07] | 1.4%
O=C1Nc2c(Br)cc(Br)cc2C1=Cc1ccc(-c2ccccc2)cc1 [10735/A11] | 2.2%
O=C1Nc2ccc(S(=O)(=O)Nc3ccc(C(F)(F)F)cc3)cc2C1=Cc1ccc(Cl)cc1Cl [10735/E10] | 10.2%
Cc1c(Br)ccc2c1C(=Cc1cc(C(F)(F)F)cc(C(F)(F)F)c1)C(=O)N2 [10735/C06] | 18.2%
O=C1Nc2ccc(CCCl)cc2C1=Cc1cc(C(F)(F)F)cc(C(F)(F)F)c1 [10735/G06] | 18.5%
O=C1Nc2ccc(S(=O)(=O)N3CCOCC3)cc2C1=Cc1ccc(-c2ccccc2)cc1 [10735/F11] | 34.6%
N#Cc1ccccc1C=C1C(=O)Nc2c(Br)cc(Br)cc21 [10735/A07] | −1.3%
CNS(=O)(=O)c1ccc2c(c1)C(=Cc1c(F)cccc1F)C(=O)N2 [10735/D08] | 21.6%
Cc1c(Br)ccc2c1C(=Cc1cccc3ccccc13)C(=O)N2 [10735/C09] | 24.5%
Cc1ccccc1C=C1C(=O)Nc2ccc(I)cc21 [10735/B02] | 1.1%
Cc1c(Br)cc(Br)c2c1C(=Cc1ccc(O)c(O)c1)C(=O)N2 [10719/H03] | −40.4%
CCOc1ccc(C=C2C(=O)Nc3c(Br)cc(Br)c(C)c32)cc1OC [10719/H02] | 22.0%
O=C1Nc2c(Br)cc(Br)cc2C1=Cc1cccc2ccccc12 [10735/A09] | −6.3%
O=C1Nc2c(Br)cc(Br)cc2C1=Cc1ccc(F)c(F)c1 [10735/A03] | −1.0%
CNS(=O)(=O)c1ccc2c(c1)C(=Cc1ccc(F)c(F)c1)C(=O)N2 [10735/D03] | 4.5%
COc1cc(OC)c(C=C2C(=O)Nc3c(Br)cc(Br)c(C)c32)c(OC)c1 [10719/H06] | 17.8%
O=C1Nc2ccc(S(=O)(=O)N3CCOCC3)cc2C1=Cc1ccc(F)c(F)c1 [10735/F03] | 11.0%
O=C1Nc2ccc(S(=O)(=O)N3CCOCC3)cc2C1=Cc1cccc(C(F)(F)F)c1 [10735/F05] | 30.2%
O=C1Nc2ccc(S(=O)(=O)Nc3ccc(C(F)(F)F)cc3)cc2C1=Cc1cccc(C(F)(F)F)c1 [10735/E05] | 14.7%
CCN(CC)c1ccc(C=C2C(=O)Nc3c(Br)cc(Br)c(C)c32)c(O)c1 [10734/H05] | 1.6%

SMILES | Flk Kinase % Inhibition (P.110)
O=C1Nc2c(Br)cc(Br)cc2C1=Cc1cc(C(F)(F)F)cc(C(F)(F)F)c1 [10735/A06] | −8.5%
Cc1ccccc1C=C1C(=O)Nc2c(Br)cc(Br)cc21 [10735/A02] | −13.4%
O=C1Nc2ccc(S(=O)(=O)Nc3ccc(C(F)(F)F)cc3)cc2C1=Cc1cc(C(F)(F)F)cc(C(F)(F)F)c1 [10735/E06] | 23.8%
O=C1Nc2ccc(I)cc2C1=Cc1ccc(F)c(F)c1 [10735/B03] | −14.3%
O=C1Nc2c(Br)cc(Br)cc2C1=Cc1cc(F)cc(F)c1 [10735/A04] | −20.8%
CNS(=O)(=O)c1ccc2c(c1)C(=Cc1cc(C(F)(F)F)cc(C(F)(F)F)c1)C(=O)N2 [10735/D06] | 16.2%
Cc1c(Br)ccc2c1C(=Cc1cccc(C(F)(F)F)c1)C(=O)N2 [10735/C05] | 11.2%
CNS(=O)(=O)c1ccc2c(c1)C(=Cc1ccccc1C#N)C(=O)N2 [10735/D07] | 21.6%
Cc1c(Br)ccc2c1C(=Cc1ccc(Cl)cc1Cl)C(=O)N2 [10735/C10] | 21.0%
CCc1c(C)[nH]c(C=C2C(=O)Nc3c(Br)cc(Br)c(C)c32)c1C [10719/H05] | 18.5%
O=C1Nc2ccc(I)cc2C1=Cc1cccc2ccccc12 [10735/B09] | 15.9%
CNS(=O)(=O)c1ccc2c(c1)C(=Cc1cccc3ccccc13)C(=O)N2 [10735/D09] | 22.6%
Cc1c(Br)ccc2c1C(=Cc1cc(F)cc(F)c1)C(=O)N2 [10735/C04] | 17.2%
O=C1Nc2ccc(I)cc2C1=Cc1cc(F)cc(F)c1 [10735/B04] | 6.1%
O=C1Nc2ccc(S(=O)(=O)Nc3ccc(C(F)(F)F)cc3)cc2C1=Cc1c(F)cccc1F [10735/E08] | 14.4%
O=C1Nc2ccc(S(=O)(=O)N3CCOCC3)cc2C1=Cc1c(F)cccc1F [10735/F08] | 10.7%
CNS(=O)(=O)c1ccc2c(c1)C(=Cc1cccc(C(F)(F)F)c1)C(=O)N2 [10735/D05] | 29.5%
O=C1Nc2c(Br)cc(Br)cc2C1=Cc1cccc(C(F)(F)F)c1 [10735/A05] | −12.2%
O=C1Nc2ccc(I)cc2C1=Cc1cc(C(F)(F)F)cc(C(F)(F)F)c1 [10735/B06] | 17.5%
O=C1Nc2ccc(I)cc2C1=Cc1ccc(Cl)cc1Cl [10735/B10] | 9.2%
N#Cc1ccccc1C=C1C(=O)Nc2ccc(S(=O)(=O)Nc3ccc(C(F)(F)F)cc3)cc21 [10735/E07] | 16.1%
O=C1Nc2ccc(I)cc2C1=Cc1c(F)cccc1F [10735/B08] | 1.6%
CNS(=O)(=O)c1ccc2c(c1)C(=Cc1cc(F)cc(F)c1)C(=O)N2 [10735/D04] | 9.1%
Cc1ccccc1C=C1C(=O)Nc2ccc(S(=O)(=O)N3CCOCC3)cc21 [10735/F02] | 2.1%

SMILES | Flk Kinase % Inhibition (P.110)
COc1ccc(C=C2C(=O)Nc3c(Br)cc(Br)c(C)c32)c(OC)c1 [10719/H04] | 3.4%
Cc1c(Br)ccc2c1C(=Cc1ccc(-c3ccccc3)cc1)C(=O)N2 [10735/C11] | 18.6%
O=C1Nc2ccc(S(=O)(=O)N3CCOCC3)cc2C1=Cc1cc(C(F)(F)F)cc(C(F)(F)F)c1 [10735/F06] | 16.7%
O=C1Nc2ccc(I)cc2C1=Cc1ccc(-c2ccccc2)cc1 [10735/B11] | 15.7%
O=C1Nc2ccc(S(=O)(=O)N3CCOCC3)cc2C1=Cc1ccc(Cl)cc1Cl [10735/F10] | 40.0%
O=C1Nc2c(Br)cc(Br)cc2C1=Cc1c(F)cccc1F [10735/A08] | −19.6%
Cc1ccccc1C=C1C(=O)Nc2ccc(CCCl)cc21 [10735/G02] | 5.1%
Cc1c(Br)cc(Br)c2c1C(=Cc1ccc([N+](=O)[O-])cc1)C(=O)N2 [10734/H06] | 2.6%
N#Cc1ccccc1C=C1C(=O)Nc2ccc(I)cc21 [10735/B07] | −5.9%
O=C1Nc2ccc(S(=O)(=O)Nc3ccc(C(F)(F)F)cc3)cc2C1=Cc1ccc(F)c(F)c1 [10735/E03] | 5.1%
O=C1Nc2ccc(CCCl)cc2C1=Cc1cc(F)cc(F)c1 [10735/G04] | 15.6%
O=C1Nc2ccc(S(=O)(=O)Nc3ccc(C(F)(F)F)cc3)cc2C1=Cc1cccc2ccccc12 [10735/E09] | 29.6%
Cc1c(O)ccc(C=C2C(=O)Nc3c(Br)cc(Br)c(C)c32)c1O [10718/H09] | −5.0%
N#Cc1ccccc1C=C1C(=O)Nc2ccc(S(=O)(=O)N3CCOCC3)cc21 [10735/F07] | 34.0%
CNS(=O)(=O)c1ccc2c(c1)C(=Cc1ccccc1C)C(=O)N2 [10735/D02] | 0.9%
Cc1c(Br)cc(Br)c2c1C(=Cc1ccc([N+](=O)[O-])o1)C(=O)N2 [10718/H11] | 13.0%
CNS(=O)(=O)c1ccc2c(c1)C(=Cc1ccc(-c3ccccc3)cc1)C(=O)N2 [10735/D11] | 25.1%
Cc1c(Br)cc(Br)c2c1C(=Cc1ccc(O)c(Br)c1)C(=O)N2 [10734/H09] | −2.2%
CNS(=O)(=O)c1ccc2c(c1)C(=Cc1ccc(Cl)cc1Cl)C(=O)N2 [10735/D10] | 15.1%
Cc1c(Br)cc(Br)c2c1C(=Cc1ccc(C(C)(C)C)cc1)C(=O)N2 [10734/H10] | 3.9%
O=C1Nc2ccc(S(=O)(=O)N3CCOCC3)cc2C1=Cc1cccc2ccccc12 [10735/F09] | 40.2%
O=C1Nc2c(Br)cc(Br)cc2C1=Cc1ccc(Cl)cc1Cl [10735/A10] | 2.2%
Cc1c(Br)cc(Br)c2c1C(=Cc1ccco1)C(=O)N2 [10718/H10] | 1.4%
